In US6495688B2, “Deazapurine derivatives: a new class of CRF1 specific ligands” (Neurogen Corporation, priority 1995, dated 2002):
Where a name gives a salt, the structure may show the parent alone.

molecular target: T1, CRF receptors (Homo sapiens, UniProt P34998); experiment: CRF receptor binding assay (125I-CRF displacement); settings: membrane preparation, 125I-CRF 100 pM, room temperature 2 hours
T1 sequence (P34998 24-415): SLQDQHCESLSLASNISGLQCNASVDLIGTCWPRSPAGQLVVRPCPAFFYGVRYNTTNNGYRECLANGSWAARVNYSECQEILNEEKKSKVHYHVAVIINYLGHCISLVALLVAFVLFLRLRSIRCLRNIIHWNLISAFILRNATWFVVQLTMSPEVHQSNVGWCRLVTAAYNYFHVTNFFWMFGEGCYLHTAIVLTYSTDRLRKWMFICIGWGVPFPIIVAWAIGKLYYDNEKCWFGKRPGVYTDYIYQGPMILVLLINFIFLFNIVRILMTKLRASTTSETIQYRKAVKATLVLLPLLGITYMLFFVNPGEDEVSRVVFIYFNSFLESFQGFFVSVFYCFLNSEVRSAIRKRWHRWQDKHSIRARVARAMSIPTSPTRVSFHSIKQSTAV
Experimental: Assay for CRF Receptor Binding Activity
CRF receptor binding was performed using a modified version of the assay described by Grigoriadis and De Souza (Biochemical, Pharmacological, and Autoradiographic Methods to Study Corticotropin-Releasing Factor Receptors. Methods in Neurosciences, Vol. 5, 1991). Membrane pellets containing CRF receptors were resuspended in 50 mM Tris buffer pH 7.7 containing 10 mM MgCl2 and 2 mM EGTA and centrifuged for 10 minutes at 48000 g. Membranes were washed again and brought to a final concentration of 1500 μg/ml in binding buffer (Tris buffer above with 0.1% BSA, 0.15 mM bacitracin and 0.01 mg/ml aprotinin.). For the binding assay, 100 ul of the membrane preparation was added to 96 well microtube plates containing 100 μl of ^125I-CRF (SA 2200 Ci/mmol, final concentration of 100 pM) and 50 μl of drug. Binding was carried out at room temperature for 2 hours. Plates were then harvested on a Brandel 96 well cell harvester and filters were counted for gamma emissions on a Wallac 1205 Betaplate liquid scintillation counter. Non specific binding was defined by 1 μM cold CRF. IC50 values were calculated with the non-linear curve fitting program RS/1 (BBN Software Products Corp., Cambridge, Mass.).

Row | IC50 [nM] | SMILES
1 | 110 | CCCN(CC1CC1)c1ncnc2c(-c3c(C)cc(C)cc3C)cn(C)c12 [Compound 1, N-cyclopropylmethyl-N-propyl-5-methyl-7-(2,4,6-trimethylphenyl)-5H-pyrrolo[3,2-d]pyrimidin-4-amine]
2 | 500 | CCCCN(CC)c1ncnc2c(-c3c(C)cc(C)cc3C)cn(C)c12 [Compound 5, N-Butyl-N-Ethyl-5-methyl-7-(2,4,6trimethylphenyl)-5H-pyrrolo[3,2-d]pyrimidin-4-amine]

test system: not given; experiment: not given; settings: not given

Row | melting point [°C] | SMILES
3 | 205 to 207 | CCCN(CC1CC1)c1ncnc2c(-c3c(C)cc(C)cc3C)cn(C)c12 (as salt: HCl) [Compound 1, N-cyclopropylmethyl-N-propyl-5-methyl-7-(2,4,6-trimethylphenyl)-5H-pyrrolo[3,2-d]pyrimidin-4-amine]
4 | 116 to 118 | CCCN(CCC)c1ncnc2c(-c3c(C)cc(C)cc3C)cn(C)c12 [Compound 2, N,N-Dipropyl-5-methyl-7-(2,4,6trimethylphenyl)-5H-pyrrolo[3,2-d]pyrimidin-4-amine]
5 | 126 to 128 | CCCCN(CC)c1ncnc2c(-c3c(C)cc(C)cc3C)cn(C)c12 [Compound 5, N-Butyl-N-Ethyl-5-methyl-7-(2,4,6trimethylphenyl)-5H-pyrrolo[3,2-d]pyrimidin-4-amine]
6 | 140 to 142 | Cc1cc(C)c(-c2cn(C)c3c(N4CCCCCC4)ncnc23)c(C)c1 [Compound 7, 4-(1-Homopiperidinyl)-5-methyl-7-(2,4,6-trimethylphenyl)-5H-pyrrolo[3,2-d]pyrimidine]
